Results published in PubChem BioAssay (NCI).
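Results reflect a 48-hour exposure of cells in 96-well plates to compound at five concentrations. The concentration for 50% growth inhibition is given as GI50. Definition used: TGI = concentration required for complete inhibition of growth.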

Columns and labels:
Test in all cases: NCI tumour cell line growth inhibition, 48 h
RXF 393 renal = test system: RXF 393 renal
SF-539 CNS = test system: SF-539 CNS
HL-60(TB) leukemia = test system: HL-60(TB) leukemia
SNB-19 CNS = test system: SNB-19 CNS
M14 melanoma = test system: M14 melanoma
HOP-92 NSCLC = test system: HOP-92 NSCLC
A549 NSCLC = test system: A549 NSCLC
NCI-H23 lung = test system: NCI-H23 lung
SW-620 colon = test system: SW-620 colon
NCI/ADR-RES ovarian = test system: NCI/ADR-RES ovarian

SMILES	TGI (RXF 393 renal) [µM]	TGI (SF-539 CNS) [µM]	TGI (HL-60(TB) leukemia) [µM]	TGI (SNB-19 CNS) [µM]	TGI (M14 melanoma) [µM]	TGI (HOP-92 NSCLC) [µM]	TGI (A549 NSCLC) [µM]	TGI (NCI-H23 lung) [µM]	TGI (SW-620 colon) [µM]	TGI (NCI/ADR-RES ovarian) [µM]	GI50 (NCI/ADR-RES ovarian) [µM]	GI50 (RXF 393 renal) [µM]	GI50 (SF-539 CNS) [µM]	GI50 (HL-60(TB) leukemia) [µM]	GI50 (SNB-19 CNS) [µM]	GI50 (M14 melanoma) [µM]	GI50 (A549 NSCLC) [µM]	GI50 (NCI-H23 lung) [µM]	GI50 (SW-620 colon) [µM]	GI50 (HOP-92 NSCLC) [µM]
COc1ccc(/C=C2/C[N+](C)(C)C/C(=C/c3ccc(OC)cc3)C2=O)cc1	> 100	> 100	44.4	> 100	> 100	> 100	> 100	> 100	> 100	–	–	–	–	–	–	–	–	–	–	–
COC(=O)C(Nc1ccc(OC)cc1)c1ccccc1 (centres undefined)	–	> 100	–	> 100	> 100	–	> 100	> 100	> 100	> 100	–	–	–	–	–	–	–	–	–	–
Cn1c(=O)c2[nH]c(CS(=O)(=O)Cc3nc4c([nH]3)c(=O)n(C)c(=O)n4C)nc2n(C)c1=O	> 100	> 100	> 100	> 100	> 100	–	> 100	> 100	> 100	> 100	–	–	–	–	–	–	–	–	–	–
CC1(C)N=C(N)N=C(N)N1c1cc(Cl)ccc1Cl	> 100	> 100	> 100	> 100	> 100	–	> 100	> 100	> 100	> 100	> 100	> 100	> 100	74.7	> 100	> 100	> 100	> 100	74.5	–
Cc1cc(C)nc(Nc2nc3ccc([N+](=O)[O-])cc3[nH]2)n1	–	> 100	> 100	> 100	> 100	> 100	> 100	> 100	> 100	–	–	–	–	–	–	–	–	–	–	–
COc1ccc2ccc([Se]c3ccc4ccc(OC)cc4c3)cc2c1	> 100	> 100	> 100	68.8	> 100	> 100	> 100	> 100	> 100	–	–	–	–	–	–	–	–	–	–	–
O=c1cc(-c2ccccc2)nc2n1CCN2Cc1ccccc1	> 100	73.5	58.2	> 100	> 100	> 100	> 100	–	> 100	–	–	46.2	27.8	33.1	80.9	37.9	35.2	–	39.1	42.8
O=S1(=O)C[C@@H](O)[C@H](O)CS1	> 100	> 100	> 100	> 100	> 100	> 100	> 100	> 100	> 100	–	–	–	–	–	–	–	–	–	–	–
CC(=O)OCC1OC(n2c(=O)n(-c3ccccc3)c(=O)c3ccccc32)C(OC(C)=O)C(OC(C)=O)C1OC(C)=O (centres undefined)	> 100	> 100	> 100	> 100	> 100	> 100	> 100	> 100	> 100	–	–	–	–	–	–	–	–	–	–	–
O=[N+]([O-])/C=C/c1c[nH]c2ccccc12	35.1	35.6	25	35.4	6.43	–	31.7	31	57.5	40	18.4	19.5	15.4	6.5	18.4	2.35	14	15	15.2	–
CCOC(=O)CC1=CSC2=NCCN12	> 100	> 100	> 100	> 100	> 100	> 100	> 100	> 100	> 100	–	–	–	–	–	–	–	–	–	–	–
O=C(O)C12C3CCCC1C2CC3 (centres undefined)	> 100	> 100	> 100	> 100	> 100	> 100	> 100	> 100	–	–	–	–	–	–	–	–	–	–	–	–
CCOC(=O)C(=O)Nc1c(N(CC)CC)n2ccccc2nc1=O	–	> 100	–	> 100	> 100	> 100	> 100	> 100	> 100	–	–	–	–	–	–	–	–	–	–	–
CN(c1ccccc1)C(c1ccccc1)C(O)c1ccccc1 (centres undefined)	–	37.7	37.7	36.4	30.4	47.8	35.4	40.4	33.2	–	–	–	–	–	–	–	–	–	–	–
c1ccc(N=C2c3ccccc3C3=NCCCN32)cc1	> 100	> 100	–	> 100	> 100	72.2	> 100	> 100	> 100	–	–	–	–	–	–	–	–	–	–	–
O=C1C(=O)N(c2ccc(Cl)c(Cl)c2)C(=O)C(=O)C1c1nc2ccccc2o1	–	> 100	53	> 100	> 100	> 100	> 100	> 100	> 100	–	–	–	–	–	–	–	–	–	–	–
CC(=O)/C=C/c1ccc(C2CC(C)=Nc3c(ccc4c3C(=O)c3ccccc3C4=O)N2)cc1 (centres undefined)	> 100	> 100	> 100	> 100	> 100	> 100	> 100	> 100	> 100	–	–	–	–	–	–	–	–	–	–	–
CCOC(=O)c1ccc(N2C(=O)/C(=C\OC)c3ccccc3C2=O)cc1	61.3	> 100	–	> 100	–	–	> 100	> 100	> 100	–	–	–	–	–	–	–	–	–	–	–
CC1(C)OCC(CO)(Nc2nc(N3CC3)nc(N3CC3)n2)CO1	28.6	27	25.3	62.1	25.5	51.5	34.3	16.3	64.1	–	–	–	–	–	–	–	–	–	–	–
COc1ccc(/C=C\c2cc(OC)c(OC)c(OC)c2)cc1OCC(=O)Nc1nc2ccc(C(F)(F)F)cc2s1	–	7.87	–	> 100	> 100	75.6	> 100	> 100	> 100	5.8	2.12	–	2.66	–	5.03	3.59	4.46	3.9	4.65	2.88
ON=C1CCC(c2ccccc2)CC1 (centres undefined)	> 100	> 100	> 100	> 100	> 100	> 100	> 100	> 100	> 100	–	–	–	–	–	–	–	–	–	–	–

SMILES	TGI (RXF 393 renal) [µM]	TGI (SF-539 CNS) [µM]	TGI (HL-60(TB) leukemia) [µM]	TGI (SNB-19 CNS) [µM]	TGI (M14 melanoma) [µM]	TGI (HOP-92 NSCLC) [µM]	TGI (A549 NSCLC) [µM]	TGI (NCI-H23 lung) [µM]	TGI (SW-620 colon) [µM]	TGI (NCI/ADR-RES ovarian) [µM]	GI50 (NCI/ADR-RES ovarian) [µM]	GI50 (RXF 393 renal) [µM]	GI50 (SF-539 CNS) [µM]	GI50 (HL-60(TB) leukemia) [µM]	GI50 (SNB-19 CNS) [µM]	GI50 (M14 melanoma) [µM]	GI50 (A549 NSCLC) [µM]	GI50 (NCI-H23 lung) [µM]	GI50 (SW-620 colon) [µM]	GI50 (HOP-92 NSCLC) [µM]
CC(C(=O)Oc1ccc2ccccc2c1-c1c(O)ccc2ccccc12)c1ccccc1 (centres undefined)	22.9	33.9	35.1	28.4	27.7	23.5	30	30.3	31.8	–	–	–	–	–	–	–	–	–	–	–
O=C([CH-]C(=O)c1ccccc1)c1ccccc1.O=C([CH-]C(=O)c1ccccc1)c1ccccc1.[Nd+3].[OH-].[OH3+]	–	48	8.17	44.9	32.6	39.7	51.5	18.6	39.8	–	–	–	15.8	1.8	8.19	13.7	17.2	3.91	6.89	13.6
CC(=O)Nc1ccc(C2[C@H]3C(=O)N(c4ccc(Cc5ccc(N6C(=O)[C@@H]7ON(c8ccccc8)C(c8ccc(NC(C)=O)cc8)[C@@H]7C6=O)cc5)cc4)C(=O)[C@H]3ON2c2ccccc2)cc1 (some centres undefined)	> 100	> 100	> 100	> 100	79.8	–	> 100	> 100	> 100	–	–	–	–	–	–	–	–	–	–	–
CCOC(=O)C1C(=O)c2ccccc2CN1Cc1ccccc1 (centres undefined)	–	> 100	> 100	> 100	> 100	> 100	> 100	> 100	> 100	–	–	–	–	–	–	–	–	–	–	–
COC(=O)Nc1nc2ccccc2c(=O)[nH]1	> 100	> 100	> 100	> 100	> 100	–	> 100	> 100	> 100	> 100	–	–	–	–	–	–	–	–	–	–
CC1=Cc2cc3[n-]c(cc4nc(cc5[n-]c(cc1n2)cc5C)C(C)=C4CCC(=O)O)c(CCC(=O)O)c3C.[Pd+2]	> 37.9	13.7	14.2	34.1	31.1	> 23.8	54.7	25.2	> 63.4	–	–	17.9	3.71	7.21	9.52	12.7	32.1	9.55	15.2	–
O=c1cc2ccccc2nn1-c1ccccc1Cl	–	> 100	–	> 100	> 100	> 100	> 100	> 100	> 100	–	–	–	–	–	–	–	–	–	–	–
O=C(O)c1cc2c(cn1)[nH]c1ccccc12	> 100	> 100	> 100	> 100	> 100	> 100	> 100	> 100	> 100	–	–	–	–	–	–	–	–	–	–	–
COC(=O)C1=C(O)C(O)=C(C(=O)OC)C1	> 100	> 100	> 100	> 100	> 100	> 100	> 100	> 100	> 100	–	–	–	–	–	–	–	–	–	–	–
Cc1c2cc[nH]c(=O)c2cc2c(=O)c3cnccc3[nH]c12	> 100	–	> 100	> 100	> 100	> 100	> 100	> 100	> 100	–	–	–	–	–	–	–	–	–	–	–
CCSc1nc(N=Cc2cccs2)c2cn[nH]c2n1	7.72	> 100	–	> 100	28	–	> 100	23.2	> 100	61.4	15.7	2.85	25.3	–	45.2	14.8	29.2	11.2	19.7	–
O=C(c1ccccc1)c1c(C(=O)c2ccccc2)c(-c2ccccc2)c2c(-c3ccccc3)sc(-c3ccccc3)c2c1-c1ccccc1	> 100	> 100	> 100	> 100	> 100	> 100	> 100	> 100	> 100	–	–	–	–	–	–	–	–	–	–	–
CC1NOC(=O)C1N=Nc1ccccc1Cl (centres undefined)	> 100	> 100	52.2	> 100	> 100	54.6	> 100	> 100	> 100	–	–	–	–	–	–	–	–	–	–	–
O=C1OC2(c3ccccc3Oc3ccccc32)c2ccccc21	–	> 100	> 100	> 100	> 100	> 100	> 100	> 100	> 100	–	–	–	–	–	–	–	–	–	–	–
COc1ccc(-c2nc(-c3ccccc3)c(-c3ccccc3)n2C2CC2)cc1OC1CCCC1	–	> 165	141	> 165	> 165	–	> 165	> 165	> 165	> 165	58.6	–	90.9	28.3	> 165	163	48.7	> 165	53.7	–
CCOC(=O)C(C)c1cc(C2(C)OCCO2)c(C)o1 (centres undefined)	> 100	> 100	> 100	> 100	> 100	97.7	> 100	> 100	> 100	–	–	–	–	–	–	–	–	–	–	–
COC(=O)c1ccc(N=NN(C)CO)cc1	> 100	> 100	> 100	> 100	> 100	–	> 100	> 100	> 100	–	–	–	–	–	–	–	–	–	–	–
N.N.NC(CS)C(=O)[O-].NC(CS)C(=O)[O-].[Pt+4] (centres undefined)	> 50	> 50	> 50	> 50	> 50	> 50	> 50	> 50	> 50	–	–	> 50	> 50	> 50	> 50	> 50	> 50	> 50	> 50	> 50
COC(=O)c1nc(NC#N)[nH]c(=O)c1C	> 100	> 93	> 100	> 100	> 100	> 100	> 100	> 100	> 100	–	–	–	–	–	–	–	–	–	–	–
CS(=O)c1ccc(COP(N)(=O)N(CCCl)CCCl)cc1 (centres undefined)	> 100	> 100	> 100	> 100	> 100	> 100	> 100	> 100	> 100	–	–	–	–	–	–	–	–	–	–	–
Nc1c(-c2nc3ccccc3[nH]2)sc(=S)n1-c1ccccc1	> 100	> 100	> 100	> 100	> 100	> 100	> 100	> 100	> 100	–	–	–	–	–	–	–	–	–	–	–
